Data published in patent US20060025390A1, “Treatment of hormone allergy and related symptoms and disorders” (priority 2004, published 2006).
One block for each molecule: values may come before it.

Assays:
[1] = tested on: serum IgM anti-estrogen antibodies; assay: ELISA binding of IgM estrogen antibodies to different hormones in solid phase; design: species or system human; details: for IgM anti-estrogen binding: relative to estrogen, over three sera; for IgM binding (optical density): hormone in solid phase, 405 nm; for IgM % reaction: relative to estrogen = 100
Method: (§1) The ELISA inhibition method was used to determine specificity and cross-reactivity between different hormones and to ensure the degree of human IgG, IgM and IgE estrogen or progesterone binding to estrogen or progesterone in solid phase. […] 100 μl of sera from three different patients with high IgG, IgM or IgE antibodies against 17-α-hydroxyprogesterone was added to all wells. After shaking and incubation for 1 hr at room temperature, addition of enzyme labeled anti-human IgG, IgM or IgE, repeat of incubation, washing, and addition of substrate, color development was measured at 405 nm. Results were calculated as percentage of anti-17-α-hydroxyprogesterone binding to 17-α-hydroxyprogesterone and other hormones. Also, anti-estrogen binding to estrogen and other hormones in solid phase by progesterone in liquid phase was performed and calculated in a similar manner.
(§2) Human sera containing 17-α-hydroxyprogesterone IgG-, IgM- and IgE-binding antibodies were reacted against progesterone, estrogen, hydrocortisone and cholesterol. In comparison to 100% binding of anti-17-α-hydroxyprogesterone-binding to 17-α-hydroxyprogesterone, the IgG anti-17-α-hydroxyprogesterone-binding to progesterone, estrogen, hydrocortisone and cholesterol was 69-77%, 25-30%, 39-53%, and less than 10% respectively (Table 4). The % binding of serum IgM and IgE anti-17-α-hydroxyprogesterone to 17-1-hydroxyprogesterone, progesterone, estrogen, hydrocortisone and cholesterol was similar to the binding of IgG. This binding of anti-17-α-hydroxyprogesterone to progesterone was the highest, followed by hydrocortisone, then estrogen, to almost no binding with cholesterol. Similar to this, human sera with IgG, IgM and IgE binding antibodies against estrogen were reacted with progesterone, 17-α-hydroxyprogesterone, hydrocortisone and cholesterol, in the presence of estrogen.

[2] = tested on: serum IgE anti-estrogen antibodies; assay: ELISA binding of IgE estrogen antibodies to different hormones in solid phase; design: species or system human; details: for IgE anti-estrogen binding: relative to estrogen, over three sera; for IgE binding (optical density): hormone in solid phase, 405 nm; for IgE % reaction: relative to estrogen = 100
Method: as §1, §2

[3] = tested on: serum IgM anti-17-α-hydroxyprogesterone antibodies; assay: ELISA binding of IgM 17-α-hydroxyprogesterone antibodies to different hormones in solid phase; design: species or system human; details: for IgM binding (optical density): hormone in solid phase, 405 nm; for IgM % reaction: relative to 17-α-hydroxyprogesterone = 100
Method: as §1, §2

[4] = tested on: serum IgG anti-17-α-hydroxyprogesterone antibodies; assay: ELISA binding of IgG 17-α-hydroxyprogesterone antibodies to different hormones in solid phase; design: species or system human; details: for IgG anti-17-α-hydroxyprogesterone binding: in comparison to 100% binding to 17-α-hydroxyprogesterone, over three sera; for IgG binding (optical density): hormone in solid phase, 405 nm; for IgG % reaction: relative to 17-α-hydroxyprogesterone = 100
Method: as §1, §2

[5] = tested on: serum IgE anti-17-α-hydroxyprogesterone antibodies; assay: ELISA binding of IgE 17-α-hydroxyprogesterone antibodies to different hormones in solid phase; design: species or system human; details: for IgE binding (optical density): hormone in solid phase, 405 nm; for IgE % reaction: relative to 17-α-hydroxyprogesterone = 100
Method: as §1, §2

[6] = tested on: serum IgG anti-estrogen antibodies; assay: ELISA binding of IgG estrogen antibodies to different hormones in solid phase; design: species or system human; details: for IgG anti-estrogen binding: relative to estrogen, over three sera; for IgG binding (optical density): hormone in solid phase, 405 nm; for IgG % reaction: relative to estrogen = 100
Method: as §1, §2

[7] = tested on: serum IgE anti-estrogen antibodies; assay: Competition ELISA: absorption of serum IgE anti-estrogen with specific and non-specific antigens; assay type: binding, human; details: for inhibition of IgE anti-estrogen binding: antigen in liquid phase, over the three sera; for IgE level after absorption: absorption with 250 μg/mL, optical density 405 nm
Method: (§3) For this, microtiter plates were coated with hormones and blocked by the addition of 2% BSA in PBST. 100 μl of serum diluent buffer was added to all wells. […] After 60 minutes incubation 100 μl serum anti-estrogen or anti-progesterone was added to all wells. […] Results were calculated as percentage of inhibition in antigen-antibody reaction.
(§4) To examine whether antibodies to estrogen or progesterone are specific or cross-reactive, we performed competition ELISA by adding specific and non-specific antigens in liquid phase and examined prevention of serum antibody binding to the antigen in solid phase. […] For IgE anti-estrogen, this inhibition by estrogen-BSA was between 54-62%, and with progesterone-BSA, from 37-43%. […] This cross-reaction between estrogen and progesterone antibodies may be due to structural similarities between these two hormones.

[8] = tested on: serum IgG anti-estrogen antibodies; assay: Competition ELISA: absorption of serum IgG anti-estrogen with specific and non-specific antigens; assay type: binding, human; details: for inhibition of anti-estrogen binding to estrogen (IgG): antigen in liquid phase, over the three sera; for IgG level after absorption: absorption with 250 μg/mL, optical density 405 nm
Method: as §3, §4

[9] = serum sample 1, before absorption 2.15
[10] = serum sample 2, before absorption 1.66
[11] = serum sample 3, before absorption 1.34
[12] = serum sample 1, before absorption 1.83
[13] = serum sample 2, before absorption 1.25
[14] = serum sample 3, before absorption 0.76

Molecule: CC(C)CCC[C@@H](C)[C@H]1CC[C@H]2[C@@H]3CC=C4C[C@@H](O)CC[C@]4(C)[C@H]3CC[C@]12C [C, Cholesterol]
IgM anti-estrogen binding [1]: not significant
IgM binding (optical density) ([1]; sample 1): 0.13
IgM binding (optical density) ([1]; sample 2): 0.25
IgM % reaction ([1]; sample 2): −12%
IgM binding (optical density) ([1]; sample 3): 0.24
IgM % reaction ([1]; sample 3): −18%
IgE anti-estrogen binding [2]: not significant
IgE binding (optical density) ([2]; sample 1): 0.15
IgE binding (optical density) ([2]; sample 2): 0.21
IgE % reaction ([2]; sample 2): −14%
IgE binding (optical density) ([2]; sample 3): 0.28
IgE % reaction ([2]; sample 3): −17%
IgM binding (optical density) ([3]; sample 1): 0.18
IgM binding (optical density) ([3]; sample 2): 0.19
IgM binding (optical density) ([3]; sample 3): 0.15
IgG anti-17-α-hydroxyprogesterone binding [4]: less than 10%
IgG binding (optical density) ([4]; sample 1): 0.21
IgG % reaction ([4]; sample 1): −13%
IgG binding (optical density) ([4]; sample 2): 0.12
IgG binding (optical density) ([4]; sample 3): 0.17
IgE binding (optical density) ([5]; sample 1): 0.2
IgE binding (optical density) ([5]; sample 2): 0.23
IgE % reaction ([5]; sample 2): −10%
IgE binding (optical density) ([5]; sample 3): 0.18
IgG anti-estrogen binding [6]: not significant
IgG binding (optical density) ([6]; sample 1): 0.12
IgG binding (optical density) ([6]; sample 2): 0.19
IgG binding (optical density) ([6]; sample 3): 0.15

Molecule: bovine serum albumin [BSA]
inhibition of IgE anti-estrogen binding [7]: did not significantly absorb
IgE level after absorption [7, 9]: 2.24
IgE level after absorption [7, 10]: 1.53
IgE level after absorption [7, 11]: 1.26
inhibition of anti-estrogen binding to estrogen (IgG) [8]: did not significantly absorb
IgG level after absorption [8, 12]: 1.79
IgG level after absorption [8, 13]: 1.13
IgG level after absorption [8, 14]: 0.81

Now from value to molecule, other results behind:

IgM anti-estrogen binding [1]: not significant
IgM binding (optical density) ([1]; sample 1): 0.16
IgM binding (optical density) ([1]; sample 2): 0.44
IgM % reaction ([1]; sample 2): −21%
IgM binding (optical density) ([1]; sample 3): 0.23
IgM % reaction ([1]; sample 3): −18%
IgE anti-estrogen binding [2]: not significant
IgE binding (optical density) ([2]; sample 1): 0.17
IgE binding (optical density) ([2]; sample 2): 0.29
IgE % reaction ([2]; sample 2): −19%
IgE binding (optical density) ([2]; sample 3): 0.25
IgE % reaction ([2]; sample 3): −16%
IgM binding (optical density) ([3]; sample 1): 0.47
IgM % reaction ([3]; sample 1): −36%
IgM binding (optical density) ([3]; sample 2): 0.5
IgM % reaction ([3]; sample 2): −39%
IgM binding (optical density) ([3]; sample 3): 0.51
IgM % reaction ([3]; sample 3): −55%
IgG anti-17-α-hydroxyprogesterone binding [4]: 39-53%
IgG binding (optical density) ([4]; sample 1): 0.69
IgG % reaction ([4]; sample 1): −43%
IgG binding (optical density) ([4]; sample 2): 0.37
IgG % reaction ([4]; sample 2): −39%
IgG binding (optical density) ([4]; sample 3): 0.36
IgG % reaction ([4]; sample 3): −53%
IgE binding (optical density) ([5]; sample 1): 0.58
IgE % reaction ([5]; sample 1): −40%
IgE binding (optical density) ([5]; sample 2): 1.2
IgE % reaction ([5]; sample 2): −50%
IgE binding (optical density) ([5]; sample 3): 0.68
IgE % reaction ([5]; sample 3): −39%
IgG anti-estrogen binding [6]: not significant
IgG binding (optical density) ([6]; sample 1): 0.15
IgG binding (optical density) ([6]; sample 2): 0.31
IgG % reaction ([6]; sample 2): −17%
IgG binding (optical density) ([6]; sample 3): 0.18
Molecule: C[C@]12CCC(=O)C=C1CC[C@@H]1[C@@H]2[C@@H](O)C[C@@]2(C)[C@H]1CC[C@]2(O)C(=O)CO [HC, Hydrocortisone]

IgM binding (optical density) ([1]; sample 1): 0.34
IgM % reaction ([1]; sample 1): −38%
IgM binding (optical density) ([1]; sample 2): 0.88
IgM % reaction ([1]; sample 2): −42%
IgM binding (optical density) ([1]; sample 3): 0.59
IgM % reaction ([1]; sample 3): −45%
IgE binding (optical density) ([2]; sample 1): 0.22
IgE % reaction ([2]; sample 1): −28%
IgE binding (optical density) ([2]; sample 2): 0.65
IgE % reaction ([2]; sample 2): −43%
IgE binding (optical density) ([2]; sample 3): 0.73
IgE % reaction ([2]; sample 3): −46%
IgM binding (optical density) ([3]; sample 1): 1.3
IgM % reaction ([3]; sample 1): −100%
IgM binding (optical density) ([3]; sample 2): 1.2
IgM % reaction ([3]; sample 2): −100%
IgM binding (optical density) ([3]; sample 3): 0.92
IgM % reaction ([3]; sample 3): −100%
IgG anti-17-α-hydroxyprogesterone binding [4]: 100%
IgG binding (optical density) ([4]; sample 1): 1.6
IgG % reaction ([4]; sample 1): −100%
IgG binding (optical density) ([4]; sample 2): 0.95
IgG % reaction ([4]; sample 2): −100%
IgG binding (optical density) ([4]; sample 3): 0.68
IgG % reaction ([4]; sample 3): −100%
IgE binding (optical density) ([5]; sample 1): 1.45
IgE % reaction ([5]; sample 1): −100%
IgE binding (optical density) ([5]; sample 2): 2.4
IgE % reaction ([5]; sample 2): −100%
IgE binding (optical density) ([5]; sample 3): 1.1
IgE % reaction ([5]; sample 3): −100%
IgG binding (optical density) ([6]; sample 1): 0.42
IgG % reaction ([6]; sample 1): −35%
IgG binding (optical density) ([6]; sample 2): 0.75
IgG % reaction ([6]; sample 2): −42%
IgG binding (optical density) ([6]; sample 3): 0.52
IgG % reaction ([6]; sample 3): −57%
Molecule: CC(=O)[C@@]1(O)CC[C@H]2[C@@H]3CCC4=CC(=O)CC[C@]4(C)[C@H]3CC[C@@]21C [HP, 17-α-hydroxy-progesterone]

inhibition of IgE anti-estrogen binding [7]: did not significantly absorb
inhibition of anti-estrogen binding to estrogen (IgG) [8]: did not significantly absorb
B1: myelin basic protein (protein, UniProt P02686 1-304, looked up)
Myelin basic protein: MGNHAGKRELNAEKASTNSETNRGESEKKRNLGELSRTTSEDNEVFGEADANQNNGTSSQDTAVTDSKRTADPKNAWQDAHPADPGSRPHLIRLFSRDAPGREDNTFKDRPSESDELQTIQEDSAATSESLDVMASQKRPSQRHGSKYLATASTMDHARHGFLPRHRDTGILDSIGRFFGGDRGAPKRGSGKDSHHPARTAHYGSLPQKSHGRTQDENPVVHFFKNIVTPRTPPPSQGKGRGLSLSRFSWGAEGQRPGFGYGGRASDYKSAHKGFKGVDAQGTLSKIFKLGGRDSRSGSPMARR
IgE level after absorption [7, 9]: 2.05
IgE level after absorption [7, 10]: 1.73
IgE level after absorption [7, 11]: 1.11
IgG level after absorption [8, 12]: 1.67
IgG level after absorption [8, 13]: 1.13
IgG level after absorption [8, 14]: 0.68
